According to patent US7767240B2, “Microbiological control in poultry processing” (priority 2001, dated 2010):

Tests used:
[1] = test system: planktonic HPC (heterotrophic plate count) bacteria; assay: HPC bacteria eradication in planktonic form, PVC sampling pipes; format: cell-based
Source text: In another group of tests, the results of which are depicted in FIGS. 5 through 10, several bromine-based microbiocides of this invention were utilized in tests illustrating their effectiveness in eradicating or controlling Heterotrophic Plate Count bacteria i.e., a mixture of naturally-occurring pathogenic bacteria of various unidentified species. These bacteria were challenged both in the form of biofilms and in planktonic form.
The experimental conditions utilized in these tests involved use of an apparatus consisting of three parallel transparent PVC sampling pipes. These pipes were used for collection of biofilm (i.e., sessile or surface attached) bacteria samples; one as control pipe, one for a relatively low biocide concentration and the third for a higher biocide concentration. The biocide challenge in each case was divided into three phases. First was a 14-day inoculation. Next was a 48-hour disinfection period. Finally a 2-week recovery period was provided. The biocide under test was slug-dosed and during the first hour of exposure, the concentration was adjusted to achieve the desired concentration level.
The source of the naturally-grown heterotrophic plate count (HPC) bacteria was sediment and associated water collected from the recirculating hot water system of a hospital. […]

[2] = test system: Escherichia coli field strain; assay: Whole bird bacteria reduction, chill tank (Example 2); format: cell-based; conditions: 1.5 h chill tank
Procedure: The trial events and experimental design used were as follows: • a) For all treatments a total of 190 birds were processed in a normal fashion. Each treatment involved use of 10 birds. • b) A warm (100° F.) bath was prepared containing 5×10^4 DelMarVa (Delaware-Maryland farm area) field Escherichia coli stain bacteria per mL. At least 200 mL of total bath fluid was provided for each bird. • c) All birds (both controls and treated) were randomly immersed into the warm bath. Both the inside and outside carcass areas were immersed to assure complete coverage. • d) Each separate chill tank water solution (normal tap water adjusted pH to 8.5, ice added to produce temperatures of <45° F.) contained 2×10^3 per mL bacteria. • e) The chill tank water solutions (at least 750 mL each) were be prepared for each disinfecting treatment, and birds were immersed for a period of 1.5 hours. • f) Each 10 minutes during the 1.5 hour chilling period, the birds were completely lifted out of solution and then reimersed in the solution. After the 1.5 hour chilling period, the birds were taken from the chill water and drained for 30 seconds, then promptly (within 5 minutes) placed into a sterile whole bird stomacher bag containing 400 mL diluent (Butterfield's Phosphate Diluent) bacteria collection. • g) Diluent (400 mL) was added to each carcass contained in a sterile stomacher bag while making sure to pour the diluent into the inside of the abdominal cavity. The carcass was rinsed inside and out with a rocking motion for one minute (ca. 35 RPM). […] After the fluids had been diluted, 0.1 mL of fluid was be placed on a MacConkey agar plate and bacteria counts determined. In cases where the goal of a 25-250 count on the plate was not achieved, another dilution and replating were conducted. • j) After all carcasses for each treatment had been dipped, water sample bacteria were determined. • k) Total bacteria per bird were calculated. […]

CC1(C)C(=O)N(Br)C(=O)N1Br [DBDMH, 1,3-dibromo-5,5-dimethylhydantoin]
planktonic HPC bacteria eradicated ([1]; 0.5 ppm as bromine, within three hours): ~99%
planktonic HPC bacteria eradicated ([1]; 5 ppm as bromine, within twelve hours): ~99.99%
Whole Bird Bacteria Reduction (%) ([2]; 50 ppm Cl2 (equivalent)): 99.9999%
Whole Bird Bacteria Reduction (%) ([2]; 100 ppm Cl2 (equivalent)): 99.9999%
Whole Bird Bacteria Reduction (%) ([2]; 150 ppm Cl2 (equivalent)): 99.9999%
